Source: patent US9475775B2, “Benzazepine dicarboxamide compounds” (Hoffmann-La Roche Inc., priority 2015, dated 2016)

Key:
human TLR8 = human TLR8 (Homo sapiens (Human), UniProt Q9NR97); assay: HEK-Blue human TLR8 cells, NF-κB SEAP reporter assay; type: cell-based; conditions: stimulation for 20 hours
Excerpt: (§1) For TLR8 and TLR7 activity testing, HEK-Blue human TLR8 or TLR7 cells (Invivogen, San Diego, Calif., USA) are used, respectively. These cells are designed for studying the stimulation of human TLR8 or TLR7 by monitoring the activation of NF-κB. A SEAP (secreted embryonic alkaline phosphatase) reporter gene is placed under the control of the IFN-b minimal promoter fused to five NF-κB and AP-1-binding sites. Therefore the reporter expression is regulated by the NF-κB promoter upon stimulation of human TLR8 or TLR7 for 20 hours. The cell culture supernatant SEAP reporter activity was determined using Quanti Blue kit (Invivogen, San Diego, Ca, USA) at a wavelength of 640 nm, a detection medium that turns purple/blue in the presence of alkaline phosphatase. EC50 values were determined using Activity Base analysis (ID Business Solution, Limited).

human TLR7 = human TLR7 (Homo sapiens (Human), UniProt Q9NYK1); assay: HEK-Blue human TLR7 cells, NF-κB SEAP reporter assay; type: cell-based; conditions: stimulation for 20 hours
Excerpt: as §1

Sequence of human TLR8 (Q9NR97 27-1041): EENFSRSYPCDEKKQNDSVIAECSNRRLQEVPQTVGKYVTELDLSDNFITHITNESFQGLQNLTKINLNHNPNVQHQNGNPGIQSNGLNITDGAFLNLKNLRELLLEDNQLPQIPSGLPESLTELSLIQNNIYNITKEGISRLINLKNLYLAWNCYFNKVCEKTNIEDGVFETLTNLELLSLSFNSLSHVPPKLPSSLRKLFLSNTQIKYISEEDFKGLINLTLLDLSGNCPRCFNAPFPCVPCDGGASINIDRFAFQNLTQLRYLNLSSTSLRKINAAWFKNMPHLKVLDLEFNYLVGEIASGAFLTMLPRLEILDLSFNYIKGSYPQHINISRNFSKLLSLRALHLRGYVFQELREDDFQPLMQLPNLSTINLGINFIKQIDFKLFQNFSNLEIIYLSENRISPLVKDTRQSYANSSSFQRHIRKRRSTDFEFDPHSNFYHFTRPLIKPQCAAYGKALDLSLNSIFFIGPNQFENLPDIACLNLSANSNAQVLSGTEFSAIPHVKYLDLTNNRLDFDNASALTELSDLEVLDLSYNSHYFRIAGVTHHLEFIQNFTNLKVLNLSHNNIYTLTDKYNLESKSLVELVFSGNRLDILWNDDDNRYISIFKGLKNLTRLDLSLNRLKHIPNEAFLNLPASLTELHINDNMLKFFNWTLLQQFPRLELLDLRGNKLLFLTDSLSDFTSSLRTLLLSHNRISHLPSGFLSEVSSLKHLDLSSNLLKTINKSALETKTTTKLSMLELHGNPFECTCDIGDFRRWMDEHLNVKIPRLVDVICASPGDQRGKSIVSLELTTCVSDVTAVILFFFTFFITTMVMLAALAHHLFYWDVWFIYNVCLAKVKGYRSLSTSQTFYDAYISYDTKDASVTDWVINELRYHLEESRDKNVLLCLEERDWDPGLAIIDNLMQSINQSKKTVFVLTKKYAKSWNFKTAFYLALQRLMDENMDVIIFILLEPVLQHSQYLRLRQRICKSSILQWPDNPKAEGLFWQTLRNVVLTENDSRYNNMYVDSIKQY
Sequence of human TLR7 (Q9NYK1 27-1049): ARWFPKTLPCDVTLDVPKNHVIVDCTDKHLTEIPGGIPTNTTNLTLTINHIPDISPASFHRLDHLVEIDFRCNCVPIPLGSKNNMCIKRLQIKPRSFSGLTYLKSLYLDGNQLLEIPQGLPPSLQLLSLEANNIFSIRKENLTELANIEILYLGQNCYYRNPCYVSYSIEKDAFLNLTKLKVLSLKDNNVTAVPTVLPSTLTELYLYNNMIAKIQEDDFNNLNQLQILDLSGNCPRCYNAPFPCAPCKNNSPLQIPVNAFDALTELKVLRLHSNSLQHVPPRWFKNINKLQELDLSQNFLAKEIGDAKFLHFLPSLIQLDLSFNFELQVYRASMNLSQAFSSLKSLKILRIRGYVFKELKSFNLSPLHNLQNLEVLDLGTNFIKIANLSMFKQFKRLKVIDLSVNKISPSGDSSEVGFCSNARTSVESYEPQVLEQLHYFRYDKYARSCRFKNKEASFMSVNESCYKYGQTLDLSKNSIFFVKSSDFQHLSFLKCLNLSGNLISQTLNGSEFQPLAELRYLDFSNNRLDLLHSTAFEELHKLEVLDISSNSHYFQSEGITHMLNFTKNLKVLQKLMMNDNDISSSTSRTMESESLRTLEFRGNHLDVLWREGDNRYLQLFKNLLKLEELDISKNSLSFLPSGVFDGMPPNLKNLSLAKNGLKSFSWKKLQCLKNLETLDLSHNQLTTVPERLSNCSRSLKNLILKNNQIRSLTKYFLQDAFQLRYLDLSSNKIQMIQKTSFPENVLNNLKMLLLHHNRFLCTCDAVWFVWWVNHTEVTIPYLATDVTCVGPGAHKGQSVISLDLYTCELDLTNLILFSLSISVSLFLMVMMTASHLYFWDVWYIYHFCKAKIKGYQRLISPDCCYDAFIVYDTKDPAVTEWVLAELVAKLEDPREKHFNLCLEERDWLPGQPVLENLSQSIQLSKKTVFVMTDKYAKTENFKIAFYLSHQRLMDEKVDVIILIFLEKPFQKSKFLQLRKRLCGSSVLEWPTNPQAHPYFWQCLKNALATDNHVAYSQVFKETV

EC50 (human TLR8) | EC50 (human TLR7) | Structure (SMILES)
0.003 µM | > 100 µM | CCCN(CCC)C(=O)C1=Cc2ccc(C(=O)Nc3cccc(CCCN)c3)cc2N=C(N)C1 [Example 59, 2-Amino-N8-[3-(3-aminopropyl)phenyl]-N4,N4-dipropyl-3H-1-benzazepine-4,8-dicarboxamide]
0.027 µM | > 100 µM | CCCN(Cc1ccc(CN)cc1)C(=O)C1=Cc2ccc(C(=O)Nc3cccc(C)c3)cc2N=C(N)C1 [Example 60, 2-Amino-N4-[[4-(aminomethyl)phenyl]methyl]-N8-(m-tolyl)-N4-propyl-3H-1-benzazepine-4,8-dicarboxamide]
0.005 µM | > 100 µM | CCCN(CCC)C(=O)C1=Cc2ccc(C(=O)Nc3ccc(CCCN)cc3)cc2N=C(N)C1 [Example 61, 2-Amino-N8-[4-(3-aminopropyl)phenyl]-N4,N4-dipropyl-3H-1-benzazepine-4,8-dicarboxamide]
0.007 µM | > 100 µM | CCCN(CCC)C(=O)C1=Cc2ccc(C(=O)Nc3cccc(CCCCN)c3)cc2N=C(N)C1 [Example 62]
0.011 µM | > 100 µM | CCCN(CCC)C(=O)C1=Cc2ccc(C(=O)Nc3ccc(F)c(CCN)c3)cc2N=C(N)C1 [Example 63, 2-Amino-N8-[3-(2-aminoethyl)-4-fluoro-phenyl]-N4,N4-dipropyl-3H-1-benzazepine-4,8-dicarboxamide]
0.029 µM | > 100 µM | CCCN(CCC)C(=O)C1=Cc2ccc(C(=O)Nc3cc(Cl)cc(CCN)c3)cc2N=C(N)C1 [Example 64, 2-Amino-N8-[3-(2-aminoethyl)-5-chloro-phenyl]-N4,N4-dipropyl-3H-1-benzazepine-4,8-dicarboxamide]
0.006 µM | > 100 µM | CCCCN(CCO)C(=O)C1=Cc2ccc(C(=O)Nc3cccc(C)c3)cc2N=C(N)C1 [Example 65, 2-Amino-N4-butyl-N4-(2-hydroxyethyl)-N8-(m-tolyl)-3H-1-benzazepine-4,8-dicarboxamide]
0.031 µM | > 100 µM | CCCN(CCC)C(=O)C1=Cc2ccc(C(=O)Nc3cncc(OCCN)c3)cc2N=C(N)C1 [Example 66, 2-Amino-N8-[5-(2-aminoethoxy)-3-pyridyl]-N4,N4-dipropyl-3H-1-benzazepine-4,8-dicarboxamide]
0.004 µM | > 100 µM | CCCN(CCC)C(=O)C1=Cc2ccc(C(=O)Nc3cncc(CNC(=O)OCc4ccccc4)c3)cc2N=C(N)C1 [Example 67, Benzyl N-[[5-[[2-amino-4-(dipropylcarbamoyl)-3H-1-benzazepine-8-carbonyl]amino]-3-pyridyl]methyl]carbamate]
0.008 µM | > 100 µM | CCCN(CCC)C(=O)C1=Cc2ccc(C(=O)Nc3cncc(/C=C/CN)c3)cc2N=C(N)C1 [Example 68, 2-Amino-N8-[5-[(E)-3-aminoprop-1-enyl]-3-pyridyl]-N4,N4-dipropyl-3H-1-benzazepine-4,8-dicarboxamide]

The remaining lines, values behind:

Structure (SMILES) | EC50 (human TLR8) | EC50 (human TLR7)
CCCN(CCC)C(=O)C1=Cc2ccc(C(=O)Nc3cccc(CN)c3)cc2N=C(N)C1 [Example 36, 2-Amino-N8-[3-(aminomethyl)phenyl]-N4,N4-dipropyl-3H-1-benzazepine-4,8-dicarboxamide] | 0.031 µM | > 100 µM
CCCN(CCC)C(=O)C1=Cc2ccc(C(=O)Nc3ccn(C)n3)cc2N=C(N)C1 [Example 37, 2-Amino-N8-(1-methylpyrazol-3-yl)-N4,N4-dipropyl-3H-1-benzazepine-4,8-dicarboxamide] | 0.023 µM | 38 µM
CCCN(CCC)C(=O)C1=Cc2ccc(C(=O)Nc3ncco3)cc2N=C(N)C1 [Example 38, 2-Amino-N8-oxazol-2-yl-N4,N4-dipropyl-3H-1-benzazepine-4,8-dicarboxamide] | 0.029 µM | 45 µM
CCCN(CCCO)C(=O)C1=Cc2ccc(C(=O)Nc3cccnc3)cc2N=C(N)C1 [Example 39, 2-Amino-N4-(3-hydroxypropyl)-N4-propyl-N8-(3-pyridyl)-3H-1-benzazepine-4,8-dicarboxamide] | 0.029 µM | > 100 µM
CCCN(CCC)C(=O)C1=Cc2ccc(C(=O)Nc3cncc(OC)c3)cc2N=C(N)C1 [Example 40, 2-Amino-N8-(5-methoxy-3-pyridyl)-N4,N4-dipropyl-3H-1-benzazepine-4,8-dicarboxamide] | 0.001 µM | > 100 µM
C#CCN(CCC)C(=O)C1=Cc2ccc(C(=O)Nc3cccc(C)c3)cc2N=C(N)C1 [Example 41, 2-Amino-N8-(m-tolyl)-N4-propyl-N4-prop-2-ynyl-3H-1-benzazepine-4,8-dicarboxamide] | 0.006 µM | > 100 µM
CCCCN(CCCC)C(=O)C1=Cc2ccc(C(=O)Nc3cccc(C)c3)cc2N=C(N)C1 [Example 42, 2-Amino-N4,N4-dibutyl-N8-(m-tolyl)-3H-1-benzazepine-4,8-dicarboxamide] | 0.017 µM | > 100 µM
CCCN(CCC)C(=O)C1=Cc2ccc(C(=O)Nc3cc(C)cc(CN)c3)cc2N=C(N)C1 [Example 43, 2-Amino-N8-[3-(aminomethyl)-5-methyl-phenyl]-N4,N4-dipropyl-3H-1-benzazepine-4,8-dicarboxamide] | 0.015 µM | 61 µM
CCCN(CCC)C(=O)C1=Cc2ccc(C(=O)Nc3cncc(OCC)c3)cc2N=C(N)C1 [Example 44, 2-Amino-N8-(5-ethoxy-3-pyridyl)-N4,N4-dipropyl-3H-1-benzazepine-4,8-dicarboxamide] | 0.001 µM | 12 µM
CCCN(CCC)C(=O)C1=Cc2ccc(C(=O)Nc3cccc(OCCOCCN)c3)cc2N=C(N)C1 [Example 45, 2-Amino-N8-[3-[2-(2-aminoethoxy)ethoxy]phenyl]-N4,N4-dipropyl-3H-1-benzazepine-4,8-dicarboxamide] | 0.026 µM | > 100 µM
CCCN(CCC)C(=O)C1=Cc2ccc(C(=O)Nc3cncc(OCCCCCN)c3)cc2N=C(N)C1 [Example 46, 2-Amino-N8-[5-(5-aminopentoxy)-3-pyridyl]-N4,N4-dipropyl-3H-1-benzazepine-4,8-dicarboxamide] | 0.01 µM | > 100 µM
CCCN(CCC)C(=O)C1=Cc2ccc(C(=O)Nc3cccc(COCCOCCN)c3)cc2N=C(N)C1 [Example 47, 2-Amino-N8-[3-[2-(2-aminoethoxy)ethoxymethyl]phenyl]-N4,N4-dipropyl-3H-1-benzazepine-4,8-dicarboxamide] | 0.006 µM | > 100 µM
CCCN(CCC)C(=O)C1=Cc2ccc(C(=O)Nc3cncc(C#CCN)c3)cc2N=C(N)C1 [Example 48, 2-Amino-N8-[5-(3-aminoprop-1-ynyl)-3-pyridyl]-N4,N4-dipropyl-3H-1-benzazepine-4,8-dicarboxamide] | 0.016 µM | > 100 µM
CCCN(CCCOCCOCCN)C(=O)C1=Cc2ccc(C(=O)Nc3cccc(C)c3)cc2N=C(N)C1 [Example 49, 2-amino-N4-[3-[2-(2-aminoethoxy)ethoxy]propyl]-N8-(m-tolyl)-N4-propyl-3H-1-benzazepine-4,8-dicarboxamide] | 0.031 µM | > 100 µM
CCCN(CCC)C(=O)C1=Cc2ccc(C(=O)Nc3cncc(CCCN)c3)cc2N=C(N)C1 [Example 50, 2-Amino-N8-[5-(3-aminopropyl)-3-pyridyl]-N4,N4-dipropyl-3H-1-benzazepine-4,8-dicarboxamide] | 0.01 µM | > 100 µM
CCCN(CCC(F)(F)F)C(=O)C1=Cc2ccc(C(=O)Nc3cccc(C)c3)cc2N=C(N)C1 [Example 51, 2-Amino-N8-(m-tolyl)-N4-propyl-N4-(3,3,3-trifluoropropyl)-3H-1-benzazepine-4,8-dicarboxamide] | 0.002 µM | 22 µM
CCCN(CCC)C(=O)C1=Cc2ccc(C(=O)Nc3cncc(/C=C\CN)c3)cc2N=C(N)C1 [Example 52, 2-Amino-N8-[5-[(Z)-3-aminoprop-1-enyl]-3-pyridyl]-N4,N4-dipropyl-3H-1-benzazepine-4,8-dicarboxamide] | 0.006 µM | > 100 µM
CCCN(CC1CC1)C(=O)C1=Cc2ccc(C(=O)Nc3cccc(C)c3)cc2N=C(N)C1 [Example 53, 2-Amino-N4-(cyclopropylmethyl)-N8-(m-tolyl)-N4-propyl-3H-1-benzazepine-4,8-dicarboxamide] | 0.002 µM | 20 µM
CCCN(CCC)C(=O)C1=Cc2ccc(C(=O)Nc3cccc(CCN)c3)cc2N=C(N)C1 [Example 54, 2-Amino-N8-[3-(2-aminoethyl)phenyl]-N4,N4-dipropyl-3H-1-benzazepine-4,8-dicarboxamide] | 0.003 µM | > 100 µM
CCCN(CC(C)C)C(=O)C1=Cc2ccc(C(=O)Nc3cccc(C)c3)cc2N=C(N)C1 [Example 55, 2-Amino-N4-isobutyl-N8-(m-tolyl)-N4-propyl-3H-1-benzazepine-4,8-dicarboxamide] | 0.002 µM | > 100 µM
CCCN(CCCOCCCN)C(=O)C1=Cc2ccc(C(=O)Nc3cccc(C)c3)cc2N=C(N)C1 [Example 56, 2-Amino-N4-[3-(3-aminopropoxy)propyl]-N8-(m-tolyl)-N4-propyl-3H-1-benzazepine-4,8-dicarboxamide] | 0.01 µM | > 100 µM
CCCN(CCC)C(=O)C1=Cc2ccc(C(=O)Nc3cccc(CCCCCN)c3)cc2N=C(N)C1 [Example 57, 2-Amino-N8-[3-(5-aminopentyl)phenyl]-N4,N4-dipropyl-3H-1-benzazepine-4,8-dicarboxamide] | 0.025 µM | > 100 µM
CCCN(CCC)C(=O)C1=Cc2ccc(C(=O)Nc3ccc(CCCCCN)cc3)cc2N=C(N)C1 [Example 58, 2-Amino-N8-[4-(5-aminopentyl)phenyl]-N4,N4-dipropyl-3H-1-benzazepine-4,8-dicarboxamide] | 0.015 µM | > 100 µM
